The values that follow are results of earlier work, collected in US20040143855A1, “Ion channels as targets for sleep-related drugs” (priority 2002, published 2004).

One series deals with Drosophila. The settings on record: flies given the drug.
A further series concerns the target T1, TREK-1 (Homo sapiens, UniProt O95069).
T1 sequence (O95069 1-426): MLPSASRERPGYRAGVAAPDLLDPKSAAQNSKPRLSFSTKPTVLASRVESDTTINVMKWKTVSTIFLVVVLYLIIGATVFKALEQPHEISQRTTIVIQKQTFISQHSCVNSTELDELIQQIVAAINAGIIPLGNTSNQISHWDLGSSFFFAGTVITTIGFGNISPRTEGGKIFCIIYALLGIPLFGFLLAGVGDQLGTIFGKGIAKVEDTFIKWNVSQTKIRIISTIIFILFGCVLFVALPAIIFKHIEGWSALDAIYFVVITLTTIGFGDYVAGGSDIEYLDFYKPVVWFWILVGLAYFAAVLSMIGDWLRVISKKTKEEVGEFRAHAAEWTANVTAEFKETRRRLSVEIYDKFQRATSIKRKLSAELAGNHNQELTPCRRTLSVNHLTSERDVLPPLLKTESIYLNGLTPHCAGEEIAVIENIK
The settings on record: volatile general anesthetics.

In the case of `Cn1c(=O)c2c(ncn2C)n(C)c1=O` [caffeine], in the series with Drosophila, the “sleep (amount)” value is “dose-dependent decrease in sleep”. Turning to `ClC(Cl)Cl` [chloroform], the “effect on TREK-1 channel” value on TREK-1 is reported as “activated”.

Turning to `CCOCC` [diethylether], the “effect on TREK-1 channel” value on TREK-1 is “activated”. `FC(F)(F)C(Cl)Br` (stereo not shown) [halothane]: the “effect on TREK-1 channel” value on TREK-1 is on record as “activated”. Take `OCCOCCN1CCN(C(c2ccccc2)c2ccc(Cl)cc2)CC1` (stereo not shown) [hydroxyzine]: in the series with Drosophila, the “sleep (amount)” value is on record as “increased sleep” and the sleep latency result is “reduced its latency”. Turning to `FC(F)OC(Cl)C(F)(F)F` (stereo not shown) [isoflurane], at TREK-1, the “effect on TREK-1 channel” value is given as “activated”.
